From the text: (§1) Solubility may be determined by measuring the amount of light transmittance (a light transmittance value) through a simple mixture of the non-volatile silicone fluid and liquid activation enhancer at the same weight/weight concentrations as in a final antiperspirant composition.
as §1, with “Solubility of a liquid activation enhancer in a non-volatile silicone” for “Solubility”, “(light” for “(a light”
The Spectronic Genesys 10 Vis utilizes a tungsten-halogen light source and has a spectral bandwidth of 5 nm, a wavelength range of 325 to 1100 nm, accuracy of ±1 nm and a repeatability of ±0.5 nm. Readouts include absorbance, transmittance and concentration. The spectrophotometer is set to 640 nm wavelength and the percent transmittance mode/readout. Polystyrene spectrometer cuvettes having a 1 cm optical light path and transmittance between ˜340 nm and ˜900 nm are used. One suitable example of a spectrometer cuvette is available from VWR International LLC under Catalog #97000-584 having a 2.5 to 4.5 ml capacity. The spectrophotometer is calibrated according to the manufacturer's instructions using a reference cuvette and composition comprised of just the non-volatile silicone fluid of interest. For example, if the test composition comprises 50 centistoke dimethicone and 15% w/w of isopropyl myristate, then the spectrometer is calibrated using a cuvette containing just 50 centistoke dimethicone. Sample cuvettes are filled sufficiently with a test composition of a non-volatile silicone fluid and liquid activation enhancer so that the light path of the spectrophotometer passes through the test composition in the cuvette. The sample cuvettes are shaken well just prior to taking a light transmittance reading.
With `CCCCCCCCCCCCCC(C)C` [isohexadecane] the light transmittance value was “about 100%” and the “solubility in 50 centistoke dimethicone” value was “soluble”.
In the case of `CCCCCCCCCCCCCCCC(=O)OC(C)C` [isopropyl palmitate], the light transmittance value is reported as “about 101%”.
For PPG-14 butyl ether, the “solubility in 50 centistoke dimethicone” value was “insoluble”.
For `CCCCCCCCCCCCCC(=O)OC(C)C` [isopropyl myristate], the light transmittance value was “about 101%”.
For `CCCCCCCCCCC(CO)CCCCCCCC` (centres unmarked) [octyldodecanol], the “solubility in 50 centistoke dimethicone” value was “soluble in the 50 centistoke dimethicone at some (lower) concentrations”.
In the case of `CCCCCCCCCCCCCCCCCC(=O)OCCCC` [butyl stearate], the light transmittance value is reported as “about 100%”.
With mineral oil the “solubility in 50 centistoke dimethicone” value was “soluble in 50 centistoke dimethicone at some (lower) concentrations”.

Source: patent US20150023883A1, “Antiperspirant Spray Devices and Compositions” (The Procter & Gamble Company, priority 2013, published 2015)
